Measurements from ChEMBL document CHEMBL3991601, “The target landscape of clinical kinase drugs” (Science, 2017).
Activity calls are given as the source filed them.

Columns and labels:
[1] = molecular target: T1, Acyl-CoA dehydrogenase family member 10 (Homo sapiens, UniProt Q6JQN1)
T1 sequence (Q6JQN1 whole entry): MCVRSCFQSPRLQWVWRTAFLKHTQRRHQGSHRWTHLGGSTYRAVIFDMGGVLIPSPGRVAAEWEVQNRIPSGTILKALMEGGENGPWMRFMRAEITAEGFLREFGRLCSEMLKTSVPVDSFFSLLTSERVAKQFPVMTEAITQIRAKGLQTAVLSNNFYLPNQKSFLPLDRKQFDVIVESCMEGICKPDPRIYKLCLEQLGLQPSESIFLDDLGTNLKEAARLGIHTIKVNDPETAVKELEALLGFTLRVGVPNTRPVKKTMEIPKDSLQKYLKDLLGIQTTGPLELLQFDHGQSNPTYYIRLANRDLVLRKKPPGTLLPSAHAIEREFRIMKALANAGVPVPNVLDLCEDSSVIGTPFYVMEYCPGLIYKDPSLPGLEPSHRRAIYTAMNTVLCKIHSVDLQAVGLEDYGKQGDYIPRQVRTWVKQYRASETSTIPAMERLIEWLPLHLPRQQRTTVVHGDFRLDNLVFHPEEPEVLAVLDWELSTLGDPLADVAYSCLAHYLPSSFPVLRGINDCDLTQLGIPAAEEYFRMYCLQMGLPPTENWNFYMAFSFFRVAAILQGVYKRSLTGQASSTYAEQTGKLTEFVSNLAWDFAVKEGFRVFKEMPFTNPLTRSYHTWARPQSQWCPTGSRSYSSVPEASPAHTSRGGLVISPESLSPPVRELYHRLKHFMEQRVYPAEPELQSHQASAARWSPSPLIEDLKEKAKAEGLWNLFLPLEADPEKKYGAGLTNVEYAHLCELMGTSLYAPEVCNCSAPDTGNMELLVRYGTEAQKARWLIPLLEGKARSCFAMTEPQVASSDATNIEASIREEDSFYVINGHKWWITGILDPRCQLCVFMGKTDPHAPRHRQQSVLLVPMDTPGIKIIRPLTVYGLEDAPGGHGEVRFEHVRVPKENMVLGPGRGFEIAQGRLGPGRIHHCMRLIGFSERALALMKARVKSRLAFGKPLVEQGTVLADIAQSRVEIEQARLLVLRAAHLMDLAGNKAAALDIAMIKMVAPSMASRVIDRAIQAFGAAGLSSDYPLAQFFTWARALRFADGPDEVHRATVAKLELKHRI

dCTP pyrophosphatase 1 = molecular target: T2, dCTP pyrophosphatase 1 (Homo sapiens, UniProt Q9H773)
T2 sequence (Q9H773 whole entry): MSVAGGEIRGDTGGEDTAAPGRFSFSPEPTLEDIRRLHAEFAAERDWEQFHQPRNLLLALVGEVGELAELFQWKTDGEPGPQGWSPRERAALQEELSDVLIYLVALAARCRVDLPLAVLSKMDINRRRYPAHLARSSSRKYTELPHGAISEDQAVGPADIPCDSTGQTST

[2] = molecular target: T3, ATP-dependent RNA helicase DDX42 (Homo sapiens, UniProt Q86XP3)
T3 sequence (Q86XP3 whole entry): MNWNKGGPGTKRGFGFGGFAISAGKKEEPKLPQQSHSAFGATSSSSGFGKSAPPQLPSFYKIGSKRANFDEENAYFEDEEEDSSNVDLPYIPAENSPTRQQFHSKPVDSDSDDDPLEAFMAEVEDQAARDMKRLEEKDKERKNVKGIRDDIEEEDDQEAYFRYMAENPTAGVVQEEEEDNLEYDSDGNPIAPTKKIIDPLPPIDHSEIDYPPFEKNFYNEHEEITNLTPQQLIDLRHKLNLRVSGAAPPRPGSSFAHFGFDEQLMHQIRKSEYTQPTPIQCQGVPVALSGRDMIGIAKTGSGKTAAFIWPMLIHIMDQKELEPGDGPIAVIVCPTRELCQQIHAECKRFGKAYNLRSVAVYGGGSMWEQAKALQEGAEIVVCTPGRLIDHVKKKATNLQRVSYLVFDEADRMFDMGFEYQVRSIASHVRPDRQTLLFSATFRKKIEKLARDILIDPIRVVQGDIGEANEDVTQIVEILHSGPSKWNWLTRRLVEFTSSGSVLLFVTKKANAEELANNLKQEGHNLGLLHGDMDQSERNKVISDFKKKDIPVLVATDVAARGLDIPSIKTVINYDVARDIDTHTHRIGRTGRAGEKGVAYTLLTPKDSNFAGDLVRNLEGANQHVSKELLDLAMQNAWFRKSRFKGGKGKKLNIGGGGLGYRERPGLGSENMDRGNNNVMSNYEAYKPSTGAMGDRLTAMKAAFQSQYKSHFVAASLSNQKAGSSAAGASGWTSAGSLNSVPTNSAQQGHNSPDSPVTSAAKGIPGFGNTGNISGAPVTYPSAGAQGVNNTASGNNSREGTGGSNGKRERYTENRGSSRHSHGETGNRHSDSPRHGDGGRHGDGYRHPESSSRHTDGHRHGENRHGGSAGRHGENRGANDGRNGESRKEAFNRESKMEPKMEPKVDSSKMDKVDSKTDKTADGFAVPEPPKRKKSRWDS

[3] = molecular target: Inosine-5'-monophosphate dehydrogenase 2 (Homo sapiens, UniProt P12268)
[4] = molecular target: T4, ATP-dependent 6-phosphofructokinase, platelet type (Homo sapiens, UniProt Q01813)
T4 sequence (Q01813 whole entry): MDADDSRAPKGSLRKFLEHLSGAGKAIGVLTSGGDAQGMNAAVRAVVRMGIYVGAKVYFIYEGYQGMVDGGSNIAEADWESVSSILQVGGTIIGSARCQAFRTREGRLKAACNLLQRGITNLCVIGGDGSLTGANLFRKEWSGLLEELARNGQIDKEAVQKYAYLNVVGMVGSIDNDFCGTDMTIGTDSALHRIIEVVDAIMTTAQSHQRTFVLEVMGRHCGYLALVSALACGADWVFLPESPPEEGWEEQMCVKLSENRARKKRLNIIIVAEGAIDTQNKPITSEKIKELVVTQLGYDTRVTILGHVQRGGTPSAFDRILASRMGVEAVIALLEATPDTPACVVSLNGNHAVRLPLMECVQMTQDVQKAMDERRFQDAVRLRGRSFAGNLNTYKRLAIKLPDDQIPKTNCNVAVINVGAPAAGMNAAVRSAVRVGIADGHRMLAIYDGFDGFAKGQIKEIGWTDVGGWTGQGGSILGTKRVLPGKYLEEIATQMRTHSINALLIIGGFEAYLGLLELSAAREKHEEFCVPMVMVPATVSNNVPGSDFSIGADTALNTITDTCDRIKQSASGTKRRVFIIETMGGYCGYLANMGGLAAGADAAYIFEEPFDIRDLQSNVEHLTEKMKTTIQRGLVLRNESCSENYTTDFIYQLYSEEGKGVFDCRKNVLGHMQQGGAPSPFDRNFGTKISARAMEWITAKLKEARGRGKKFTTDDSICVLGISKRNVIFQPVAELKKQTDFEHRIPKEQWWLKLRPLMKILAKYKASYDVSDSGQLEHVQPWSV

[5] = molecular target: Protein kinase C alpha type (Homo sapiens, UniProt P17252)
Further: in the data inactive means no Kd found up to 30 µM.

| SMILES | Kd [1] | Kd (dCTP pyrophosphatase 1) | Kd [2] | Kd [3] | Kd [4] | Kd [5] |
| --- | --- | --- | --- | --- | --- | --- |
| COc1cc2ncnc(Nc3ccc(F)c(Cl)c3)c2cc1NC(=O)/C=C/CN1CCCCC1 [DACOMITINIB ANHYDROUS] | > 30 µM (inactive) | > 30 µM (inactive) | > 30 µM (inactive) | > 30 µM (inactive) | > 30 µM (inactive) | > 30 µM (inactive) |
| Cn1c(=O)n(-c2ccc(C(C)(C)C#N)cc2)c2c3cc(-c4cnc5ccccc5c4)ccc3ncc21 [DACTOLISIB] | > 30 µM (inactive) | > 30 µM (inactive) | > 30 µM (inactive) | > 30 µM (inactive) | > 30 µM (inactive) | > 30 µM (inactive) |
| O=S(=O)(c1cccc2cnccc12)N1CCCNCC1 [FASUDIL] | > 30 µM (inactive) | > 30 µM (inactive) | > 30 µM (inactive) | > 30 µM (inactive) | > 30 µM (inactive) | > 30 µM (inactive) |
| C#Cc1cccc(Nc2ncnc3cc4c(cc23)OCCOCCOCCO4)c1 [ICOTINIB] | > 30 µM (inactive) | > 30 µM (inactive) | > 30 µM (inactive) | > 30 µM (inactive) | > 30 µM (inactive) | > 30 µM (inactive) |
| COc1cc2ncnc3c2cc1OCCCCCN(C)Cc1ccc(Br)cc1N3 [JNJ-26483327] | > 30 µM (inactive) | > 30 µM (inactive) | > 30 µM (inactive) | > 30 µM (inactive) | > 30 µM (inactive) | > 30 µM (inactive) |
| Cc1ccc(C(=O)Nc2ccc(Oc3cc4cnn(C)c4cc3-c3cn[nH]c3)c(F)c2)c(=O)n1-c1ccc(F)cc1 [MERESTINIB] | > 30 µM (inactive) | > 30 µM (inactive) | > 30 µM (inactive) | > 30 µM (inactive) | > 30 µM (inactive) | > 30 µM (inactive) |
| O=C(NOC[C@H](O)CO)c1ccc(F)c(F)c1Nc1ccc(I)cc1F [MIRDAMETINIB] | > 30 µM (inactive) | > 30 µM (inactive) | > 30 µM (inactive) | > 30 µM (inactive) | > 30 µM (inactive) | > 30 µM (inactive) |
| N#CCNC(=O)c1ccc(-c2ccnc(Nc3ccc(N4CCOCC4)cc3)n2)cc1 [MOMELOTINIB] | > 30 µM (inactive) | > 30 µM (inactive) | > 30 µM (inactive) | > 30 µM (inactive) | > 30 µM (inactive) | > 30 µM (inactive) |
| CC1(C)CNc2cc(NC(=O)c3cccnc3NCc3ccncc3)ccc21 [MOTESANIB] | > 30 µM (inactive) | > 30 µM (inactive) | > 30 µM (inactive) | > 30 µM (inactive) | > 30 µM (inactive) | > 30 µM (inactive) |
| COc1cccc2cc(-c3nc([C@H]4CC[C@H](C(=O)O)CC4)n4ncnc(N)c34)[nH]c12 [OSI-027] | > 30 µM (inactive) | > 30 µM (inactive) | > 30 µM (inactive) | > 30 µM (inactive) | > 30 µM (inactive) | > 30 µM (inactive) |
| C=CC(=O)Nc1cc(Nc2nccc(-c3cn(C)c4ccccc34)n2)c(OC)cc1N(C)CCN(C)C [OSIMERTINIB] | > 30 µM (inactive) | > 30 µM (inactive) | > 30 µM (inactive) | > 30 µM (inactive) | > 30 µM (inactive) | > 30 µM (inactive) |
| CN(c1ncccc1CNc1nc(Nc2ccc3c(c2)CC(=O)N3)ncc1C(F)(F)F)S(C)(=O)=O [PF-00562271] | > 30 µM (inactive) | > 30 µM (inactive) | > 30 µM (inactive) | > 30 µM (inactive) | > 30 µM (inactive) | > 30 µM (inactive) |
| CC(C)CC(=O)Nc1[nH]nc2c1CN(C(=O)C1CCN(C)CC1)C2(C)C [PHA-793887] | > 30 µM (inactive) | > 30 µM (inactive) | > 30 µM (inactive) | > 30 µM (inactive) | > 30 µM (inactive) | > 30 µM (inactive) |
| O=C(NC[C@H](O)CO)c1ccncc1Nc1ccc(I)cc1F [PIMASERTIB] | > 30 µM (inactive) | > 30 µM (inactive) | > 30 µM (inactive) | > 30 µM (inactive) | > 30 µM (inactive) | > 30 µM (inactive) |
| COCCN1CCN(Cc2ccc(-c3n[nH]c4c3C(=O)c3c(NC(=O)NN5CCOCC5)cccc3-4)cc2)CC1 [RGB-286638] | > 30 µM (inactive) | > 30 µM (inactive) | > 30 µM (inactive) | > 30 µM (inactive) | > 30 µM (inactive) | > 30 µM (inactive) |
| C=CC(=O)Nc1cccc(Nc2nc(Nc3ccc(N4CCN(C(C)=O)CC4)cc3OC)ncc2C(F)(F)F)c1 [ROCILETINIB] | > 30 µM (inactive) | > 30 µM (inactive) | > 30 µM (inactive) | > 30 µM (inactive) | > 30 µM (inactive) | > 30 µM (inactive) |
| Cn1cnc2c(F)c(Nc3ccc(Br)cc3Cl)c(C(=O)NOCCO)cc21 [SELUMETINIB] | > 30 µM (inactive) | > 30 µM (inactive) | > 30 µM (inactive) | > 30 µM (inactive) | > 30 µM (inactive) | > 30 µM (inactive) |
| CNC(=O)c1cc(COc2nnc(Nc3ccc(Cl)cc3)c3ccoc23)ccn1 [TELATINIB] | > 30 µM (inactive) | > 30 µM (inactive) | > 30 µM (inactive) | > 30 µM (inactive) | > 30 µM (inactive) | > 30 µM (inactive) |
| CNC(=O)c1cccc(-c2ccc3c(N4CCOC[C@@H]4C)nc(N4CCOC[C@@H]4C)nc3n2)c1 [VISTUSERTIB] | > 30 µM (inactive) | > 30 µM (inactive) | > 30 µM (inactive) | > 30 µM (inactive) | 0.983 µM (active) | > 30 µM (inactive) |
